Laboratory results as given in patent US11492335B2, “Aryl or heteroaryl triazolone derivatives or salts thereof, or pharmaceutical compositions comprising the same” (YUHAN CORPORATION, priority 2018, dated 2022).
Counter-ions that a name gives are not always drawn.

What was measured:
Assay type in all cases: biochemical
[1] = biological target: T1, recombinant human DAO (diamine oxidase) (Homo sapiens, UniProt P19801); experiment: Activity on recombinant human DAO, Amplex Red method, 1 mM putrescine substrate; conditions: recombinant human DAO, 1 mM putrescine, * = between 10 and 100 nM, ** = between 300 and 1000 nM; for IC50: read-out: Inhibitory Activity (IC50, nM) DAO
T1 construct: purchased R&D systems
T1 sequence (P19801 20-751): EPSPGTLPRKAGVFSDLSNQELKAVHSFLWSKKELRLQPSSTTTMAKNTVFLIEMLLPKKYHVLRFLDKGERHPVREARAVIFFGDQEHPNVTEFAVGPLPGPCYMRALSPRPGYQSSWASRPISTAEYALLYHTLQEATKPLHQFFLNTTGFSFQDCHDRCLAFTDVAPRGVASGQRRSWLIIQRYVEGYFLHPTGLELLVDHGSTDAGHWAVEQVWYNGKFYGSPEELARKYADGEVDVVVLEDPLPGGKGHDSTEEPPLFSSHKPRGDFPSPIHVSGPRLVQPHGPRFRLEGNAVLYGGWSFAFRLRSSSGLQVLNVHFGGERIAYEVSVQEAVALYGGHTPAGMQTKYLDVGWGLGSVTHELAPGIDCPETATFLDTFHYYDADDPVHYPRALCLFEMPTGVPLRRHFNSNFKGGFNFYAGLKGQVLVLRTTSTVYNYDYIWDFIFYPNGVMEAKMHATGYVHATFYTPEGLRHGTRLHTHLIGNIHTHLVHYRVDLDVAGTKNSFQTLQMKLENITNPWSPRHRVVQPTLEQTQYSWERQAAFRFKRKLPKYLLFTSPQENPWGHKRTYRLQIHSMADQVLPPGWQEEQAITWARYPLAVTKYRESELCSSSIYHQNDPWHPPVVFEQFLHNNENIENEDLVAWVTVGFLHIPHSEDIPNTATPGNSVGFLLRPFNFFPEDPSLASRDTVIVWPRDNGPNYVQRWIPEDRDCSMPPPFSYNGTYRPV
Protocol: (§1) The compounds according to the present technology were evaluated in terms of activity on recombinant human VAP-1 (R&D systems) by measuring the level of hydrogen peroxide in horseradish peroxidase (HRP)-coupled reaction using Amplex Red Hydrogen Peroxide Assay Kit (Molecular Probes, Invitrogen, USA). The experiment was carried out at room temperature using benzylamine as a substrate. In the HRP-coupled reaction, hydrogen peroxide oxidation of 10-acetyl-3,7-dihydroxyphenoxazine (Amplex Red reagent) produces resorufin, which is a highly fluorescent compound. Briefly, the test compound was dissolved in dimethyl sulfoxide (DMSO) at a concentration of 20 mM. The dose-response assessment was made by 1:3 serial dilution in DMSO, thereby creating an 8 point curve. The concentration of the upper part was controlled according to the efficacy of the compounds, followed by dilution with a reaction buffer solution to obtain a final DMSO concentration less than 1%. To each well of a 96 black well plate, human VAP-1 purified in 50 mM sodium phosphate buffer solution (pH7.4) was added. The test compounds dissolved in DMSO were incubated with the human VAP-1 enzymes at 37° C. for 30 minutes. After 30-minute incubation, each well is added with a reaction mixture containing 200 uM Amplex Red reagent prepared from 50 mM sodium phosphate buffer solution (pH 7.4), 1 mM benzylamine, and 1 U/mL HRP. Fluorescence intensity was measured at several time points during 1-2 hours using a microplate reader (Flexstation3, Molecular Devices) under the wavelength condition exciting at 544 nm and reading the emission at 590 nm. The inhibitory effect of the compounds was measured as a decrease (%) in the signal rate as compared to the control group without any inhibitor (only diluted DMSO). Data was fixed to a logistic model with four variables and IC50 value was calculated using GraphPad Prism program.
(§2) In addition, the compounds according to the present technology were evaluated in terms of activity on a recombinant human MAO-A (monoamine oxidase-A, Sigma-Aldrich) and a recombinant human MAO-B (monoamine oxidase-B, Sigma-Aldrich) by using as substrates, 0.5 mM tyramine and 1 mM benzylamine, respectively, with a method similar to the activity evaluation method for recombinant human VAP-1. The compounds according to the present technology were also evaluated in terms of activity on a recombinant human DAO (diamine oxidase, R&D systems) by using as a substrate 1 mM putrescine with a method similar to the activity evaluation method for recombinant human VAP-1.

[2] = biological target: T2, recombinant human MAO-A (monoamine oxidase-A) (Homo sapiens, UniProt P21397); experiment: Activity on recombinant human MAO-A, Amplex Red method, 0.5 mM tyramine substrate; conditions: 0.5 mM tyramine, read-out: Inhibitory Activity (IC50, nM) MAO-A
T2 construct: purchased Sigma-Aldrich
T2 sequence (P21397 1-527): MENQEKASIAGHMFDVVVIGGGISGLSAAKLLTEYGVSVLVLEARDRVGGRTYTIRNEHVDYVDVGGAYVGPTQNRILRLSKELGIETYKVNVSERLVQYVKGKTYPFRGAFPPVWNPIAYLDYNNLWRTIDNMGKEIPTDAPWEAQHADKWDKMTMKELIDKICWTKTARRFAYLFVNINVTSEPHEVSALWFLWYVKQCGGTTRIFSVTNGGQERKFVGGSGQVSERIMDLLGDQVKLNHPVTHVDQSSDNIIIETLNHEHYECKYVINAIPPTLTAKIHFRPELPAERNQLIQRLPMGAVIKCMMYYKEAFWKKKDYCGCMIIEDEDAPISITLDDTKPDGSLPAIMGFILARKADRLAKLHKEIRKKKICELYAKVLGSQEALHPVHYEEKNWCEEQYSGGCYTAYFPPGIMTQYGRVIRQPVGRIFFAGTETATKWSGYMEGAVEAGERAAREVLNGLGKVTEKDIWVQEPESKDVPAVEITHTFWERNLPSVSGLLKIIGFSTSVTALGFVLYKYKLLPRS
Protocol: as §1, §2

recombinant human VAP-1 = biological target: T3, recombinant human VAP-1 (Homo sapiens, UniProt Q16853); experiment: Activity on recombinant human VAP-1, Amplex Red HRP-coupled hydrogen peroxide assay, benzylamine substrate; conditions: recombinant human VAP-1, benzylamine substrate, 30 min preincubation at 37° C.; read-out: Inhibitory Activity (IC50, nM) human VAP-1
T3 construct: purchased R&D systems
T3 sequence (Q16853 1-763): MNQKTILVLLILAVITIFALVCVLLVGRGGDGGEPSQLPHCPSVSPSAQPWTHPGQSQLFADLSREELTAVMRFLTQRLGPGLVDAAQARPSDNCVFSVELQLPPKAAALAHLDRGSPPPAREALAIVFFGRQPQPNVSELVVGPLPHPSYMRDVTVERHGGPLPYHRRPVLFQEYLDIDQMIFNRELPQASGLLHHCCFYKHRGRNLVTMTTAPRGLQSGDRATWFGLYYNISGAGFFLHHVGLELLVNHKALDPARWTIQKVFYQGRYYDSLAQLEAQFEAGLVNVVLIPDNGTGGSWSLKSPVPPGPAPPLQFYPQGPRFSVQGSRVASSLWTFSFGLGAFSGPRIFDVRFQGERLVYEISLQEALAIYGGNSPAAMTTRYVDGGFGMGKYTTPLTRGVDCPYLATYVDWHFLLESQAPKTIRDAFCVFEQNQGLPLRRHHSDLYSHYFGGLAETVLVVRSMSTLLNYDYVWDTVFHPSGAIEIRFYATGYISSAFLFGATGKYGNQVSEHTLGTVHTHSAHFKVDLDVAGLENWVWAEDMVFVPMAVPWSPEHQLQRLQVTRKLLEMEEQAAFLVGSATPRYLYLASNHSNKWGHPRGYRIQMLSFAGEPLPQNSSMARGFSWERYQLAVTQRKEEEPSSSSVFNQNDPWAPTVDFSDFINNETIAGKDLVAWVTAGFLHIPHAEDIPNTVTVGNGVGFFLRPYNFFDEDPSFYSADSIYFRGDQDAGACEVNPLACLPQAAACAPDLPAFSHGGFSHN
Protocol: as §1

[3] = biological target: T4, recombinant human MAO-B (monoamine oxidase-B) (Homo sapiens, UniProt P27338); experiment: Activity on recombinant human MAO-B, Amplex Red method, 1 mM benzylamine substrate; conditions: 1 mM benzylamine; for IC50: read-out: Inhibitory Activity (IC50, nM) MAO-B
T4 construct: purchased Sigma-Aldrich
T4 sequence (P27338 1-520): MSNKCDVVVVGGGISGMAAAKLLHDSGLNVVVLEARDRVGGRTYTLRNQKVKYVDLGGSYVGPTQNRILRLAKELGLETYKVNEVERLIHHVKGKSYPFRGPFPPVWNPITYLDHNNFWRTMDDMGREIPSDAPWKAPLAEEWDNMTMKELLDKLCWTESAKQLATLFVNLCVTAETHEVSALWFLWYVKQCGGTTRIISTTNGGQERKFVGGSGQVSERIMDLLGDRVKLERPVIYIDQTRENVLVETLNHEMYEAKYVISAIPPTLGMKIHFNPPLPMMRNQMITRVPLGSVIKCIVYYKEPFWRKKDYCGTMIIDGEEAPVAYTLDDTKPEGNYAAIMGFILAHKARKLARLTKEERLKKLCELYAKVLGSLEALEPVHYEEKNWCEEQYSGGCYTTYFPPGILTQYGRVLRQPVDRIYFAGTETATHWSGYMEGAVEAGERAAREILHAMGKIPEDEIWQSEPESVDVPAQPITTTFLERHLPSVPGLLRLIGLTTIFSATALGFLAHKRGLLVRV
Protocol: as §1, §2

| IC50 [1] [nM] | IC50 [2] [nM] | IC50 (recombinant human VAP-1) [nM] | IC50 [3] [nM] | Inhibitory Activity (IC50, nM) DAO [1] | Inhibitory Activity (IC50, nM) MAO-B [3] | SMILES |
| --- | --- | --- | --- | --- | --- | --- |
| 120 | 2900 | 0.9 | 86 | – | – | NC/C(=C\F)Cn1ncn(-c2ccc(Br)cc2)c1=O [Example 2, 2-[(2E)-2-(aminomethyl)-3-fluoroprop-2-en-1-yl]-4-(4-bromophenyl)-2,4-dihydro-3H-1,2,4-triazol-3-one] |
| 542 | 3500 | 2.5 | 121 | – | – | NC/C(=C/F)Cn1ncn(-c2cccc(Br)c2)c1=O [Example 3, 2-[(2Z)-2-(aminomethyl)-3-fluoroprop-2-en-1-yl]-4-(3-bromophenyl)-2,4-dihydro-3H-1,2,4-triazol-3-one hydrochloride] |
| 90 | > 100000 | 1.2 | 175 | – | – | NC/C(=C\F)Cn1ncn(-c2cccc(Br)c2)c1=O [Example 4, 2-[(2E)-2-(aminomethyl)-3-fluoroprop-2-en-1-yl]-4-(3-bromophenyl)-2,4-dihydro-3H-1,2,4-triazol-3-one hydrochloride] |
| 1100 | 1600 | 3.8 | 260 | – | – | NC/C(=C/F)Cn1ncn(-c2ccc(F)cc2)c1=O [Example 5, 2-[(2Z)-2-(aminomethyl)-3-fluoroprop-2-en-1-yl]-4-(4-fluorophenyl)-2,4-dihydro-3H-1,2,4-triazol-3-one] |
| 1100 | > 100000 | 3.7 | > 10000 | – | – | NC/C(=C\F)Cn1ncn(-c2ccc(F)cc2)c1=O [Example 6, 2-[(2E)-2-(aminomethyl)-3-fluoroprop-2-en-1-yl]-4-(4-fluorophenyl)-2,4-dihydro-3H-1,2,4-triazol-3-one hydrochloride] |
| 47 | 2100 | 0.88 | 8 | – | – | NC/C(=C/F)Cn1ncn(-c2ccc(OCc3ccccc3)cc2)c1=O [Example 7, 2-[(2Z)-2-(aminomethyl)-3-fluoroprop-2-en-1-yl]-4-[4-(benzyloxy)phenyl]-2,4-dihydro-3H-1,2,4-triazol-3-one] |
| 38 | 54000 | 0.6 | 10 | – | – | NC/C(=C\F)Cn1ncn(-c2ccc(OCc3ccccc3)cc2)c1=O [Example 8, 2-[(2E)-2-(aminomethyl)-3-fluoroprop-2-en-1-yl]-4-[4-(benzyloxy)phenyl]-2,4-dihydro-3H-1,2,4-triazol-3-one hydrochloride] |
| 290 | 2100 | 5.4 | 85 | – | – | NC/C(=C/F)Cn1ncn(-c2ccc(F)c(F)c2)c1=O [Example 9, 2-[(2Z)-2-(aminomethyl)-3-fluoroprop-2-en-1-yl]-4-(3,4-difluorophenyl)-2,4-dihydro-3H-1,2,4-triazol-3-one] |
| 100 | > 100000 | 2.4 | 1610 | – | – | NC/C(=C\F)Cn1ncn(-c2ccc(F)c(F)c2)c1=O [Example 10, 2-[(2E)-2-(aminomethyl)-3-fluoroprop-2-en-1-yl]-4-(3,4-difluorophenyl)-2,4-dihydro-3H-1,2,4-triazol-3-one hydrochloride] |
| – | – | 2.8 | – | no inhibitory | no inhibitory | Cc1c(-c2ccc3c(c2)OCO3)cccc1-n1cnn(C/C(=C/F)CN)c1=O [Example 111, 2-[(2E)-2-(aminomethyl)-3-fluoroprop-2-en-1-yl]-4-[3-(1,3-benzodioxol-5-yl)-2-methylphenyl]-2,4-dihydro-3H-1,2,4-triazol-3-one] |
| – | – | 2.5 | – | no inhibitory | no inhibitory | Cc1c(-c2ccc3c(c2)OCCO3)cccc1-n1cnn(C/C(=C/F)CN)c1=O [Example 112, 2-[(2E)-2-(aminomethyl)-3-fluoroprop-2-en-1-yl]-4-[3-(2,3-dihydro-1,4-benzodioxin-6-yl)-2-methylphenyl]-2,4-dihydro-3H-1,2,4-triazol-3-one] |
